Measured values: ChEMBL document CHEMBL2169819, “Synthesis and biological evaluation of 2-amino-3-(4-chlorobenzoyl)-4-[(4-arylpiperazin-1-yl)methyl]-5-substituted-thiophenes. effect of the 5-modification on allosteric enhancer activity at the A1 adenosine receptor” (J Med Chem, 2012)

Experiments:
[1] = molecular target: T1, Adenosine receptor A1 (Homo sapiens) (UniProt P30542); assay: Allosteric enhancing activity at human adenosine A1 receptor expressed in CHO cells assessed as increase in CCPA-induced [3H]DPCPX displacement at 10 uM after 90 mins relative to control; type: cell-based
T1 sequence (whole entry): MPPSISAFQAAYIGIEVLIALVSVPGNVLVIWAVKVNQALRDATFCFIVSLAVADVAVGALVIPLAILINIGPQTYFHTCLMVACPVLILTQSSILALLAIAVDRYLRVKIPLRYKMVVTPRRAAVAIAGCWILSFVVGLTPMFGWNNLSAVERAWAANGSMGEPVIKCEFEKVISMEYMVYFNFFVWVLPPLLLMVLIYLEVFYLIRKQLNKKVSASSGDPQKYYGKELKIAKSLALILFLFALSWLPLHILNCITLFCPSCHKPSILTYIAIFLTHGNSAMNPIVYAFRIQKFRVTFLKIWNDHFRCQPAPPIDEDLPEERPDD

[2] = molecular target: T1, Adenosine receptor A1 (Homo sapiens); assay: Allosteric enhancing activity at human adenosine A1 receptor expressed in CHO cells assessed as increase in [3H]-2-chloro-N6-cyclopentyladenosine Bmax at 10 uM after 90 mins relative to control; type: cell-based
[3] = molecular target: T2, Adenosine receptor A3 (Homo sapiens) (UniProt P0DMS8); assay: Displacement of [3H]MRE-3008-F20 from human adenosine A3 receptor expressed in CHO cells at 10 uM after 120 mins by scintillation counting; type: cell-based
T2 sequence (whole entry): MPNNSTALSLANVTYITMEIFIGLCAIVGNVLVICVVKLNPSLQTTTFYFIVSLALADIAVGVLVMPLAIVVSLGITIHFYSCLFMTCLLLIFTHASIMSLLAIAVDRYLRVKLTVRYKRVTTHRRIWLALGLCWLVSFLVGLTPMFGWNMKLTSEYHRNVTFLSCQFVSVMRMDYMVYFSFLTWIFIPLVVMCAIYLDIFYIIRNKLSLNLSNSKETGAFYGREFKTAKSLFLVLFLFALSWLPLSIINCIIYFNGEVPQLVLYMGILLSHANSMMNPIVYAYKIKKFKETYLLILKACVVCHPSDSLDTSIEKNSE

[4] = molecular target: Adenosine receptor A2a (Homo sapiens) (UniProt P29274); assay: Displacement of [3H]ZM241385 from human adenosine A2A receptor expressed in CHO cells at 10 uM after 120 mins by scintillation counting; type: cell-based
[5] = molecular target: T1, Adenosine receptor A1 (Homo sapiens); assay: Displacement of [3H]DPCPX from human adenosine A1 receptor expressed in CHO cells at 10 uM after 120 mins by scintillation counting; type: cell-based
[6] = molecular target: T1, Adenosine receptor A1 (Homo sapiens); assay: Allosteric enhancing activity at human adenosine A1 receptor expressed in CHO cells assessed as inhibition of forskolin-stimulated cAMP accumulation at 100 nM incubated for 10 mins prior to forskolin-stimulation measured after 5 mins by competition protein binding assay in presence of 2-chloro-N6-cyclopentyladenosine; type: functional, cell-based
[7] = molecular target: T1, Adenosine receptor A1 (Homo sapiens); assay: Allosteric enhancing activity at human adenosine A1 receptor expressed in CHO cells assessed as inhibition of forskolin-stimulated cAMP accumulation at 10 uM incubated for 10 mins prior to forskolin-stimulation measured after 5 mins by competition protein binding assay; type: functional, cell-based

Adenosine receptor A2a (Homo sapiens), sequence (P29274 whole entry): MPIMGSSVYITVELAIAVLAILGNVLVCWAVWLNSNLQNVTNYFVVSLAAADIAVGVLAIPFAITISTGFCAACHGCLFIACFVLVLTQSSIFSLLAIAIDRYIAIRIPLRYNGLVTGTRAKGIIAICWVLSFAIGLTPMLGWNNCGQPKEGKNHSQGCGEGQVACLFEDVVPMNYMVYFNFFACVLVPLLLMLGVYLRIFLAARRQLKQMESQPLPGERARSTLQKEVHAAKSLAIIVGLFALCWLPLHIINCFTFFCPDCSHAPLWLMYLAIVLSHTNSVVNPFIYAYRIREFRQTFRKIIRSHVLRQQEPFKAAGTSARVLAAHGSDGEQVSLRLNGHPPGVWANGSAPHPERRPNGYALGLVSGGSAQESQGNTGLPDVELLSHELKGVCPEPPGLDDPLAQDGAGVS

| SMILES | Ratio Ki [1] | fold change (FC) [2] | inhibition [3] [%] | inhibition [4] [%] | inhibition [5] [%] | inhibition [6] [%] | inhibition [7] [%] |
| --- | --- | --- | --- | --- | --- | --- | --- |
| Nc1sc(-c2ccccc2)c(CN2CCN(c3ccc(F)cc3)CC2)c1C(=O)c1ccc(Cl)cc1 | 9.4 | 11.1 | < 12 | < 12 | < 12 | 71 | 77 |
| CCc1sc(N)c(C(=O)c2ccc(Cl)cc2)c1CN1CCN(c2ccccc2)CC1 | 4.9 | 5.5 | < 12 | < 12 | < 12 | 50 | 57 |
| Nc1sc(-c2ccccc2)c(CN2CCN(c3ccccc3)CC2)c1C(=O)c1ccc(Cl)cc1 | 8.3 | 11.5 | < 12 | < 12 | < 12 | 74 | 79 |
| Nc1sc(-c2ccc(Cl)cc2)c(CN2CCN(c3ccccc3C(F)(F)F)CC2)c1C(=O)c1ccc(Cl)cc1 | 7.2 | 8.1 | < 12 | < 12 | < 12 | 62 | 66 |
| Nc1sc(-c2ccc(F)cc2)c(CN2CCN(c3ccccc3)CC2)c1C(=O)c1ccc(Cl)cc1 | 13.3 | 14.1 | < 12 | < 12 | < 12 | 81 | 89 |
| Cc1sc(N)c(C(=O)c2ccc(Cl)cc2)c1CN1CCN(c2ccc(F)cc2)CC1 | 5.2 | 5.9 | < 12 | < 12 | < 12 | 53 | 50 |
| Nc1sc(-c2ccc(Cl)cc2)c(CN2CCN(c3ccc(OC(F)(F)F)cc3)CC2)c1C(=O)c1ccc(Cl)cc1 | 8.9 | 10.7 | < 12 | < 12 | < 12 | 72 | 78 |
| Cc1sc(N)c(C(=O)c2ccc(Cl)cc2)c1CN1CCN(c2ccc(C(F)(F)F)cc2)CC1 | 6.8 | 7.6 | < 12 | < 12 | < 12 | 61 | 60 |
| CCc1sc(N)c(C(=O)c2ccc(Cl)cc2)c1CN1CCN(c2ccc(F)cc2)CC1 | 3.8 | 6.7 | < 12 | < 12 | < 12 | 55 | 63 |
| Nc1sc(-c2ccc(Cl)cc2)c(CN2CCN(c3ccc(C(F)(F)F)cc3)CC2)c1C(=O)c1ccc(Cl)cc1 | 10.5 | 11.2 | < 12 | < 12 | < 12 | 75 | 83 |
| Nc1sc(-c2ccccc2)c(CN2CCN(c3ccc(Cl)c(Cl)c3)CC2)c1C(=O)c1ccc(Cl)cc1 | 3 | 6.8 | < 12 | < 12 | < 12 | 56 | 55 |
| Cc1sc(N)c(C(=O)c2ccc(Cl)cc2)c1CN1CCN(c2cccc(Cl)c2)CC1 | 6.1 | 6.5 | < 12 | < 12 | < 12 | 54 | 58 |
| Nc1sc(-c2ccccc2)c(CN2CCN(c3ccc(Cl)cc3)CC2)c1C(=O)c1ccc(Cl)cc1 | 7.9 | 9.7 | < 12 | < 12 | < 12 | 67 | 68 |
| Cc1sc(N)c(C(=O)c2ccc(Cl)cc2)c1CN1CCN(c2cccc(C(F)(F)F)c2)CC1 | 5.7 | 6.2 | < 12 | < 12 | < 12 | 52 | 51 |
| Cc1sc(N)c(C(=O)c2ccc(Cl)cc2)c1CN1CCN(c2ccc(Br)cc2)CC1 | 4.5 | 4.9 | < 12 | < 12 | < 12 | 46 | 49 |
| Cc1sc(N)c(C(=O)c2ccc(Cl)cc2)c1CN1CCN(c2ccc(Cl)cc2)CC1 | 4.2 | 4.7 | < 12 | < 12 | < 12 | 40 | 44 |
| Nc1sc(Br)c(CN2CCN(c3ccccc3)CC2)c1C(=O)c1ccc(Cl)cc1 | 4.5 | 4.7 | < 12 | < 12 | < 12 | 43 | 48 |
| Nc1sc(Br)c(CN2CCN(c3ccc(F)cc3)CC2)c1C(=O)c1ccc(Cl)cc1 | 4.1 | 4.4 | < 12 | < 12 | < 12 | 41 | 46 |
